Test results reported in US11147272B2, “Pyridone compounds and agricultural and horticultural fungicides comprising the same as active ingredients” (MITSUI CHEMICALS AGRO, INC., priority 2017, dated 2021).

Tests used:
[1] = test system: Magnaporthe grisea; assay: whole plant or invertebrate; type: in vivo; settings: Blast on rice; class of control value
[2] = test system: Alternaia brassicicola; assay: Test Example C: Alternaria sooty spot on cabbage; type: in vivo; settings: Alternaria sooty spot on cabbage; class of control value
Excerpt: Seeds of a test plant (cabbage variety: Shikidori) were planted and cultivated until the cotyledons extended.
<Control Value> Control value=100{1−(n/3)}

[3] = test system: Puccinia recondita; assay: Test Example E: Brown rust on wheat; type: in vivo; settings: Brown rust on wheat; class of control value
[4] = test system: Phytophthora infestans; assay: whole plant or invertebrate; type: in vivo; settings: Late blight on tomato; class of control value
[5] = test system: Botrytis cinerea; assay: Test Example B: Gray mold on tomato; settings: Gray mold on tomato; class of control value
[6] = test system: Plasmopara viticola; assay: Test Example G: Downy mildew on vine; settings: Downy mildew on vine (Neomuscat); 250 ppm spray, 2.5 ml/pot; assessed 7 to 10 days after inoculation
[7] = test system: Colletotrichum orbiculare; assay: Test Example H: Anthracnose on cucumber; settings: Anthracnose on cucumber (Sagami Hanjiro); 250 ppm spray, 2.5 ml/pot; assessed 6 to 10 days after inoculation
[8] = test system: Blumeria graminis f. sp. hordei; assay: Test Example D: Powdery mildew on barley; settings: Powdery mildew on barley; class of control value

| Compound | Test A control value class [1] | Test C control value class [2] | Test E control value class [3] | Test F control value class [4] | Test B control value class [5] | Test G control value class [6] | Test H control value class [7] | Test D control value class [8] |
| --- | --- | --- | --- | --- | --- | --- | --- | --- |
| CC(C)c1ccc(=O)n(C)c1-c1c(F)cc(F)cc1F [compound 13] | H (more than 50% control value) | L (50% or less control value) | L (50% or less control value) | L (50% or less control value) | H (more than 50% control value) | L (50% or less control value) | L (50% or less control value) | H (more than 50% control value) |
| COc1cc(F)c(-c2c(C(C)C)ccc(=O)n2C)c(F)c1 [compound 14] | H (more than 50% control value) | H (more than 50% control value) | H (more than 50% control value) | H (more than 50% control value) | H (more than 50% control value) | L (50% or less control value) | H (more than 50% control value) | H (more than 50% control value) |
| CC(C)c1cc(Cl)c(=O)n(C)c1-c1c(F)cc(F)cc1F [compound 15] | H (more than 50% control value) | H (more than 50% control value) | H (more than 50% control value) | L (50% or less control value) | H (more than 50% control value) | L (50% or less control value) | H (more than 50% control value) | H (more than 50% control value) |
| COc1cc(F)c(-c2c(C(C)C)cc(Cl)c(=O)n2C)c(F)c1 [compound 16] | H (more than 50% control value) | H (more than 50% control value) | H (more than 50% control value) | L (50% or less control value) | H (more than 50% control value) | H (more than 50% control value) | H (more than 50% control value) | H (more than 50% control value) |
| CCn1c(-c2c(F)cccc2F)c(C(C)O)cc(Cl)c1=O (stereo not shown) [compound 17] | L (50% or less control value) | H (more than 50% control value) | H (more than 50% control value) | H (more than 50% control value) | H (more than 50% control value) | H (more than 50% control value) | H (more than 50% control value) | L (50% or less control value) |
| CCn1c(-c2c(F)cccc2F)c(C(C)OC)cc(Cl)c1=O (stereo not shown) [compound 18] | H (more than 50% control value) | H (more than 50% control value) | H (more than 50% control value) | H (more than 50% control value) | H (more than 50% control value) | H (more than 50% control value) | H (more than 50% control value) | H (more than 50% control value) |
| CCOC(C)c1cc(Cl)c(=O)n(CC)c1-c1c(F)cccc1F (stereo not shown) [compound 19] | H (more than 50% control value) | H (more than 50% control value) | H (more than 50% control value) | L (50% or less control value) | H (more than 50% control value) | H (more than 50% control value) | H (more than 50% control value) | H (more than 50% control value) |
| CCn1c(-c2c(F)cccc2F)c(C(C)=O)cc(Cl)c1=O [compound 22] | L (50% or less control value) | H (more than 50% control value) | H (more than 50% control value) | L (50% or less control value) | H (more than 50% control value) | H (more than 50% control value) | H (more than 50% control value) | L (50% or less control value) |
| CCn1c(-c2c(F)cccc2F)c(C(C)(C)O)cc(Cl)c1=O [compound 23] | H (more than 50% control value) | H (more than 50% control value) | H (more than 50% control value) | L (50% or less control value) | H (more than 50% control value) | L (50% or less control value) | H (more than 50% control value) | H (more than 50% control value) |
| CC=C(C)c1cc(Cl)c(=O)n(CC)c1-c1c(F)cccc1F [compound 28] | H (more than 50% control value) | H (more than 50% control value) | H (more than 50% control value) | L (50% or less control value) | H (more than 50% control value) | H (more than 50% control value) | H (more than 50% control value) | H (more than 50% control value) |
| CCC(C)c1ccc(=O)n(CC)c1-c1c(F)cc(F)cc1F (stereo not shown) [compound 31] | H (more than 50% control value) | H (more than 50% control value) | H (more than 50% control value) | L (50% or less control value) | H (more than 50% control value) | H (more than 50% control value) | H (more than 50% control value) | H (more than 50% control value) |
| CCC(C)c1cc(Br)c(=O)n(CC)c1-c1c(F)cc(F)cc1F (stereo not shown) [compound 32] | H (more than 50% control value) | H (more than 50% control value) | H (more than 50% control value) | L (50% or less control value) | H (more than 50% control value) | L (50% or less control value) | H (more than 50% control value) | H (more than 50% control value) |
| CCC(C)c1cc(Cl)c(=O)n(CC)c1-c1c(F)cc(F)cc1F (stereo not shown) [compound 33] | H (more than 50% control value) | H (more than 50% control value) | H (more than 50% control value) | L (50% or less control value) | H (more than 50% control value) | L (50% or less control value) | H (more than 50% control value) | H (more than 50% control value) |
| CCC(C)c1ccc(=O)n(CC)c1-c1c(F)cc(OC)cc1F (stereo not shown) [compound 34] | H (more than 50% control value) | H (more than 50% control value) | H (more than 50% control value) | L (50% or less control value) | H (more than 50% control value) | H (more than 50% control value) | H (more than 50% control value) | H (more than 50% control value) |
